Measured values reported in patent US20070207331A1, “Azo compounds and coating compositions containing the azo compounds” (priority 2006, published 2007).

Test: solubility of the reactive azo compounds in toluene (weight percent solubility)
Assay type: physicochemical
Conditions: for WPS (weight percent solubility in toluene): heated to boil, cooled to room temperature, filtered (0.45 μm), dry residue mass / filtrate mass; for solubility in toluene relative to compounds of similar structure (in words): comparison of methyl ester comparative compounds with the yellow azo compounds of the invention
Method: The solubilites of the reactive azo compounds of Examples 1, 2, 3 and 4 and Comparative Examples 1, 2 and 3 (C-1, C-2 and C-3) in toluene were determined according to the following procedures: A sample (0.2 g) of each compound was added to a screw top vial followed by the addition of toluene (0.5 mL for each vial containing the reactive azo compound of Examples 1, 3, 4 or C-3; 1.0 mL for Examples 2 or C-1; 1.5 mL for Example C-2. Each vial was capped and heated until the solution or mixture began to boil. Each solution or mixture then was allowed to cool to room temperature. Various amounts of toluene were required to give a filterable solution or suspension upon cooling. The solutions or suspensions of the azo compounds were filtered (0.45 μm nylon membrane with glass microfiber prefilter, Autovial®, Whatman Inc.) to give homogenous solutions (filtrates). Each filtered solution was weighed and the toluene solvent was removed under reduced pressure to give the mass of dry residue of each azo compound dissolved in the toluene solvent. The weight percent solubility of each azo compound is defined as [formula]
wherein WPS is the weight percent solubility for each azo compound in toluene and Dry Azo Compound Residue and Toluene Solution Filtrate are produced as described above. The results of the toluene solubility evaluations are shown in Table II wherein Azo compound refers to the example in which the reactive azo compound and its preparation is described.

| SMILES | WPS (weight percent solubility in toluene) [weight percent] | solubility in toluene relative to compounds of similar structure (in words) |
| --- | --- | --- |
| C=C(C)C(=O)OCCn1c(O)c(/N=N/c2ccccc2C(=O)OCCOCC)c(C)c(C#N)c1=O [Example 4] | 35.5 |  |
| C=C(C)c1cccc(C(C)(C)NC(=O)OCCn2c(O)c(/N=N/c3ccccc3C(=O)OCC(CC)CCCC)c(C)c(C#N)c2=O)c1 (stereo not shown) [Example 1] | 37.5 |  |
| C=C(C)c1cccc(C(C)(C)NC(=O)OCCn2c(O)c(/N=N/c3ccc(C(=O)OC)cc3)c(C)c(C#N)c2=O)c1 [Example C-1] | 8.8 | much lower |
| C=C(C)C(=O)OCCn1c(O)c(/N=N/c2ccccc2C(=O)OCC(CC)CCCC)c(C)c(C#N)c1=O (stereo not shown) [Example 3] | 33.3 |  |
| C=C(C)C(=O)OCCn1c(O)c(/N=N/c2ccccc2C(=O)OCC(C)C)c(C)c(C#N)c1=O [Example 2] | 18.6 |  |

Results, then the compound that gave them:

| WPS (weight percent solubility in toluene) [weight percent] | solubility in toluene relative to compounds of similar structure (in words) | SMILES |
| --- | --- | --- |
| 11.1 | much lower | C=C(C)C(=O)OCCn1c(O)c(/N=N/c2ccccc2C(=O)OC)c(C)c(C#N)c1=O [Example C-3] |
| 2.3 | much lower | C=C(C)c1cccc(C(C)(C)NC(=O)OCCn2c(O)c(/N=N/c3ccccc3C(=O)OC)c(C)c(C#N)c2=O)c1 [Example C-2] |
